Values after ≈ are worked out from the molar mass of the structure shown.
Tests used:
Format in all cases: functional
Candida albicans [1] = experiment: Antifungal activity against Candida albicans isolate 12 harboring ERG3 W332R mutant gene by broth microdilution method
Candida albicans [2] = experiment: Antifungal activity against Candida albicans isolate 488 harboring ERG3 H243N, T330A, A351V and ERG11 D225G, E266D, E391G, V488I mutant genes by broth microdilution method
Candida albicans [3] = experiment: Antifungal activity against Candida albicans isolate 1008 harboring ERG3 K97E, L193P, V237A, A351V, A353T and ERG11 E266D mutant genes by broth microdilution method
Candida albicans [4] = experiment: Antifungal activity against Candida albicans isolate 14 by broth microdilution method
Candida albicans [5] = experiment: Antifungal activity against Candida albicans isolate 177 by broth dilution method
Candida albicans [6] = experiment: Antifungal activity against Candida albicans isolate 6 by broth microdilution method
Candida albicans [7] = experiment: Antifungal activity against Candida albicans isolate 490 harboring ERG3 D147G, T330A, A351V and ERG11 F72S, T229A, E266D, N440S, V488I, R523G mutant genes by broth microdilution method
Candida albicans [8] = experiment: Antifungal activity against Candida albicans isolate 14 assessed as ergosterol content in total sterol composition at 0.5 times MIC by GC-MS analysis
Candida albicans [9] = experiment: Antifungal activity against Candida albicans isolate 488 harboring ERG3 H243N, T330A, A351V and ERG11 D225G, E266D, E391G, V488I mutant genes assessed as lanosterol/obtusifoliol content in total sterol composition at 0.5 times MIC by GC-MS analysis
Candida albicans [10] = experiment: Antifungal activity against Candida albicans isolate 490 harboring ERG3 D147G, T330A, A351V and ERG11 F72S, T229A, E266D, N440S, V488I, R523G mutant genes assessed as 14alpha-methylergosta-8,24(28)-dien-3beta,6alpha-diol content in total sterol composition at 0.5 times MIC by GC-MS analysis
Candida albicans [11] = experiment: Antifungal activity against Candida albicans isolate 12 harboring ERG3 W332R mutant gene assessed as lanosterol/obtusifoliol content in total sterol composition at 0.5 times MIC by GC-MS analysis
Candida albicans [12] = experiment: Antifungal activity against Candida albicans isolate 488 harboring ERG3 H243N, T330A, A351V and ERG11 D225G, E266D, E391G, V488I mutant genes assessed as 14alpha-methyl fecosterol content in total sterol composition at 0.5 times MIC by GC-MS analysis
Candida albicans [13] = experiment: Antifungal activity against Candida albicans isolate 12 harboring ERG3 W332R mutant gene assessed as 14alpha-methyl fecosterol content in total sterol composition at 0.5 times MIC by GC-MS analysis
Candida albicans [14] = experiment: Antifungal activity against Candida albicans isolate 14 assessed as lanosterol/obtusifoliol content in total sterol composition at 0.5 times MIC by GC-MS analysis
Candida albicans [15] = experiment: Antifungal activity against Candida albicans isolate 490 harboring ERG3 D147G, T330A, A351V and ERG11 F72S, T229A, E266D, N440S, V488I, R523G mutant genes assessed as 14alpha-methyl fecosterol content in total sterol composition at 0.5 times MIC by GC-MS analysis
Candida albicans [16] = experiment: Antifungal activity against Candida albicans isolate 1008 harboring ERG3 K97E, L193P, V237A, A351V, A353T and ERG11 E266D mutant genes assessed as lanosterol/obtusifoliol content in total sterol composition at 0.5 times MIC by GC-MS analysis
Candida albicans [17] = experiment: Antifungal activity against Candida albicans isolate 177 assessed as 14alpha-methylergosta-8,24(28)-dien-3beta,6alpha-diol content in total sterol composition at 0.5 times MIC by GC-MS analysis
Candida albicans [18] = experiment: Antifungal activity against Candida albicans isolate 488 harboring ERG3 H243N, T330A, A351V and ERG11 D225G, E266D, E391G, V488I mutant genes by broth microdilution method in presence of 10 uM drug efflux inhibitor FK506
Candida albicans [19] = experiment: Antifungal activity against Candida albicans isolate 1008 harboring ERG3 K97E, L193P, V237A, A351V, A353T and ERG11 E266D mutant genes assessed as 14alpha-methyl fecosterol content in total sterol composition at 0.5 times MIC by GC-MS analysis
Candida albicans [20] = experiment: Antifungal activity against Candida albicans isolate 14 assessed as 14alpha-methylergosta-8,24(28)-dien-3beta,6alpha-diol content in total sterol composition at 0.5 times MIC by GC-MS analysis
Candida albicans [21] = experiment: Antifungal activity against Candida albicans isolate 1008 harboring ERG3 K97E, L193P, V237A, A351V, A353T and ERG11 E266D mutant genes assessed as eburicol content in total sterol composition at 0.5 times MIC by GC-MS analysis
Candida albicans [22] = experiment: Antifungal activity against Candida albicans isolate 490 harboring ERG3 D147G, T330A, A351V and ERG11 F72S, T229A, E266D, N440S, V488I, R523G mutant genes assessed as ergosterol content in total sterol composition at 0.5 times MIC by GC-MS analysis
Candida albicans [23] = experiment: Antifungal activity against Candida albicans isolate 488 harboring ERG3 H243N, T330A, A351V and ERG11 D225G, E266D, E391G, V488I mutant genes assessed as ergosterol content in total sterol composition at 0.5 times MIC by GC-MS analysis
Candida albicans [24] = experiment: Antifungal activity against Candida albicans isolate 14 by broth microdilution method in presence of 10 uM drug efflux inhibitor FK506
Candida albicans [25] = experiment: Antifungal activity against Candida albicans isolate 1008 harboring ERG3 K97E, L193P, V237A, A351V, A353T and ERG11 E266D mutant genes by broth microdilution method in presence of 10 uM drug efflux inhibitor FK506
Candida albicans [26] = experiment: Antifungal activity against Candida albicans isolate 12 harboring ERG3 W332R mutant gene assessed as 14alpha-methylergosta-8,24(28)-dien-3beta,6alpha-diol content in total sterol composition at 0.5 times MIC by GC-MS analysis
Candida albicans [27] = experiment: Antifungal activity against Candida albicans isolate 12 harboring ERG3 W332R mutant gene assessed as eburicol content in total sterol composition at 0.5 times MIC by GC-MS analysis
Candida albicans [28] = experiment: Antifungal activity against Candida albicans isolate 6 by broth microdilution method in presence of 10 uM drug efflux inhibitor FK506
Candida albicans [29] = experiment: Antifungal activity against Candida albicans isolate 177 assessed as ergosterol content in total sterol composition at 0.5 times MIC by GC-MS analysis
Candida albicans [30] = experiment: Antifungal activity against Candida albicans isolate 6 assessed as eburicol content in total sterol composition at 0.5 times MIC by GC-MS analysis
Candida albicans [31] = experiment: Antifungal activity against Candida albicans isolate 490 harboring ERG3 D147G, T330A, A351V and ERG11 F72S, T229A, E266D, N440S, V488I, R523G mutant genes by broth microdilution method in presence of 10 uM drug efflux inhibitor FK506
Candida albicans [32] = experiment: Antifungal activity against Candida albicans isolate 1008 harboring ERG3 K97E, L193P, V237A, A351V, A353T and ERG11 E266D mutant genes assessed as ergosta 7,22-dienol content in total sterol composition at 0.5 times MIC by GC-MS analysis
Candida albicans [33] = experiment: Antifungal activity against Candida albicans isolate 177 by broth dilution method in presence of 10 uM drug efflux inhibitor FK506
Candida albicans [34] = experiment: Antifungal activity against Candida albicans isolate 488 harboring ERG3 H243N, T330A, A351V and ERG11 D225G, E266D, E391G, V488I mutant genes assessed as eburicol content in total sterol composition at 0.5 times MIC by GC-MS analysis
Candida albicans [35] = experiment: Antifungal activity against Candida albicans isolate 12 harboring ERG3 W332R mutant gene assessed as ergosterol content in total sterol composition at 0.5 times MIC by GC-MS analysis
Candida albicans [36] = experiment: Antifungal activity against Candida albicans isolate 12 harboring ERG3 W332R mutant gene by broth microdilution method in presence of 10 uM drug efflux inhibitor FK506
Candida albicans [37] = experiment: Antifungal activity against Candida albicans isolate 177 assessed as eburicol content in total sterol composition at 0.5 times MIC by GC-MS analysis
Candida albicans [38] = experiment: Antifungal activity against Candida albicans isolate 177 assessed as 14alpha-methyl fecosterol content in total sterol composition at 0.5 times MIC by GC-MS analysis
Candida albicans [39] = experiment: Antifungal activity against Candida albicans isolate 6 assessed as ergosterol content in total sterol composition at 0.5 times MIC by GC-MS analysis
Candida albicans [40] = experiment: Antifungal activity against Candida albicans isolate 6 assessed as 14alpha-methylergosta-8,24(28)-dien-3beta,6alpha-diol content in total sterol composition at 0.5 times MIC by GC-MS analysis

CCC(C)n1ncn(-c2ccc(N3CCN(c4ccc(OCC5COC(Cn6cncn6)(c6ccc(Cl)cc6Cl)O5)cc4)CC3)cc2)c1=O (centres undefined) [ITRACONAZOLE]
MIC (Candida albicans [1]): > 16 µg/mL | MIC (Candida albicans [2]): > 16 µg/mL | MIC (Candida albicans [3]): > 16 µg/mL | MIC (Candida albicans [4]): 0.0625 µg/mL (≈ 0.0886 µM) | MIC (Candida albicans [5]): 16 µg/mL (≈ 22.7 µM) | MIC (Candida albicans [6]): 16 µg/mL (≈ 22.7 µM) | MIC (Candida albicans [7]): > 16 µg/mL

CC(=O)N1CCN(c2ccc(OCC3COC(Cn4ccnc4)(c4ccc(Cl)cc4Cl)O3)cc2)CC1 (centres undefined) [KETOCONAZOLE]
MIC (Candida albicans [1]): > 16 µg/mL | MIC (Candida albicans [2]): 8 µg/mL (≈ 15.1 µM) | MIC (Candida albicans [3]): > 16 µg/mL | MIC (Candida albicans [4]): 0.0625 µg/mL (≈ 0.118 µM) | MIC (Candida albicans [5]): 16 µg/mL (≈ 30.1 µM) | MIC (Candida albicans [6]): 16 µg/mL (≈ 30.1 µM) | MIC (Candida albicans [7]): 8 µg/mL (≈ 15.1 µM)

C[C@@H](c1ncncc1F)[C@](O)(Cn1cncn1)c1ccc(F)cc1F [VORICONAZOLE]
Activity (Candida albicans [8]): 47.3% | Activity (Candida albicans [9]): 15.8% | MIC (Candida albicans [1]): > 16 µg/mL | Activity (Candida albicans [10]): 13.5% | Activity (Candida albicans [11]): 16.2% | Activity (Candida albicans [12]): 57.2% | Activity (Candida albicans [13]): 69.2% | Activity (Candida albicans [14]): 24.1% | Activity (Candida albicans [15]): 69.1% | Activity (Candida albicans [16]): 19% | Activity (Candida albicans [17]): 35.4% | MIC (Candida albicans [18]): 0.0625 µg/mL | Activity (Candida albicans [19]): 65.1% | Activity (Candida albicans [20]): 28.6% | Activity (Candida albicans [21]): 13.7% | Activity (Candida albicans [22]): 6.3% | Activity (Candida albicans [23]): 8% | MIC (Candida albicans [24]): < 0.0625 µg/mL | MIC (Candida albicans [25]): > 16 µg/mL | Activity (Candida albicans [26]): 1.8% | Activity (Candida albicans [27]): 9.9% | MIC (Candida albicans [28]): < 0.0625 µg/mL | Activity (Candida albicans [29]): 45% | Activity (Candida albicans [30]): 4.8% | MIC (Candida albicans [31]): 0.0625 µg/mL | MIC (Candida albicans [2]): > 16 µg/mL | Activity (Candida albicans [32]): 2.2% | MIC (Candida albicans [3]): > 16 µg/mL | MIC (Candida albicans [33]): < 0.0625 µg/mL | MIC (Candida albicans [4]): 0.0625 µg/mL (≈ 0.179 µM) | Activity (Candida albicans [34]): 7.5% | Activity (Candida albicans [35]): 2.9% | MIC (Candida albicans [5]): 16 µg/mL (≈ 45.8 µM) | MIC (Candida albicans [36]): > 16 µg/mL | Activity (Candida albicans [37]): 5% | MIC (Candida albicans [6]): 16 µg/mL (≈ 45.8 µM) | MIC (Candida albicans [7]): > 16 µg/mL | Activity (Candida albicans [38]): 2.9% | Activity (Candida albicans [39]): 46.1% | Activity (Candida albicans [40]): 37.2%
